Data as given in ChEMBL document CHEMBL1128843, “Protein kinase C- inhibitors; structure-activity relationships in bis-indole series” (Bioorg Med Chem Lett, 1995).

Each compound was assayed against Protein kinase C alpha type (Homo sapiens, UniProt P17252) (assay: Inhibition of Protein kinase C alpha).

Structure (SMILES) | IC50 [nM]
COC(=O)c1cc(NC(=O)c2cc(C(=O)c3cc(NC(=O)Cn4cc(C5=C(c6c[nH]c7ccccc67)C(=O)NC5=O)c5ccccc54)cn3C)cn2C)cn1C | 170
CN(C)CCCNC(=O)c1cc(NC(=O)c2cc(NC(=O)c3cc(NC(=O)Cn4cc(C5=C(c6c[nH]c7ccccc67)C(=O)NC5=O)c5ccccc54)cn3C)cn2C)cn1C | 460
COC(=O)c1cc(NC(=O)c2cc(NC(=O)Cn3cc(C4=C(c5c[nH]c6ccccc56)C(=O)NC4=O)c4ccccc43)cn2C)cn1C | 280
CN(C)CCCNC(=O)c1cc(NC(=O)c2cc(NC(=O)Cn3cc(C4=C(c5c[nH]c6ccccc56)C(=O)NC4=O)c4ccccc43)cn2C)cn1C | 630
CN(C)CCCNC(=O)c1cc(NC(=O)Cn2cc(C3=C(c4c[nH]c5ccccc45)C(=O)NC3=O)c3ccccc32)cn1C | 1000
COC(=O)c1cc(NC(=O)Cn2cc(C3=C(c4c[nH]c5ccccc45)C(=O)NC3=O)c3ccccc32)cn1C | 500
CN(C)CCCn1cc(C2=C(c3c[nH]c4ccccc34)C(=O)NC2=O)c2ccccc21 [GF-109203] | 10
